Values of other authors as cited in patent publication US8216611B2, “Combined-step process for pharmaceutical compositions” (Mylan Pharmaceuticals ULC, priority 2005, dated 2012).

Columns and labels:
[1] = system: epileptic patients; conditions: doses up to 4000 mg/day, preliminary data
[2] = system: healthy volunteers; design: tolerability at single dose: dose or concentration left out as unconfirmed

Question: With `CC[C@@H](C(N)=O)N1CCCC1=O` [levetiracetam, (−)-(S)-α-ethyl-2-oxo-1-pyrrolidine acetamide] as the compound, how does the “tolerability in epileptic patients” value [1] read?
Answer: good tolerability

Question: What about the “tolerability at repeated doses” value ([2]; repeated doses (1500 mg/day for 14 days)) of the same compound?
Answer: well tolerated

Question: What about the “tolerability at single dose” value ([2]; single dose) of the same compound?
Answer: well tolerated

Question: And the solubility in water?
Answer: 104.0 g/100 ml
